Measured values taken from ChEMBL document CHEMBL1127252, “Anti-solid tumor efficacy and preparation of N-[[1-[[2-(diethylamino)ethyl]amino]-9-oxo-9H-thioxanthen-4-yl]methyl]methanesulfonamide (win 33377) and related derivatives” (1994).

How the values were obtained:
Assay type in all cases: functional
Mus musculus [1] = organism: Mus musculus; test: Survival (Long Term Cure) of tumor inoculated mice after 100 days.
Mus musculus [2] = test: The maximum tolerated total dose following i.v. administration in mice.
Mus musculus [3] = organism: Mus musculus; test: Percent tumor growth inhibition in mice.
Mus musculus [4] = organism: Mus musculus; test: Log cell kill of tumor (indicating the tumor growth delay) in mice.
Mus musculus [5] = test: Maximum tolerated total dose (MTD) was determined after intravenous administration in mice

Structure (SMILES)	LTC (Mus musculus [1])	MTD (Mus musculus [2]) [mg/kg]	T/C (Mus musculus [3]) [%]	LCK (Mus musculus [4])	MTD (Mus musculus [5]) [mg/kg]
CCN(CC)CCNc1ccc(CNS(=O)(=O)c2ccccc2)c2sc3ccccc3c(=O)c12	1	840	0	2.9	–
CCOP(=O)(NCc1ccc(NCCN(CC)CC)c2c(=O)c3ccccc3sc12)OCC	0	1298	36	<0.5	–
CCN(CC)CCNc1ccc(CNS(C)(=O)=O)c2sc3ccc(O)cc3c(=O)c12	0	47	11	3.7	–
CCN(CC)CCNc1ccc(CN(C)S(C)(=O)=O)c2sc3ccccc3c(=O)c12	1	304	0	2.5	–
CCN(CC)CCNc1ccc(CNC)c2sc3ccc(OC)cc3c(=O)c12	1	880	0	5.1	–
CCN(CC)CCNc1ccc(CNC=O)c2sc3ccccc3c(=O)c12	1	576	0	3	–
CCN(CC)CCNc1ccc(CNS(C)(=O)=O)c2sc3ccc(OC)cc3c(=O)c12	1	248	0	6.5	–
CCN(CC)CCNc1ccc(CNC(=O)OC)c2sc3ccccc3c(=O)c12	2	248	0	8.8	–
COc1cccc2c1C(=O)c1c(O)c3c(c(O)c1C2=O)C[C@@](O)(C(=O)CO)C[C@@H]3O[C@H]1C[C@H](N)[C@H](O)[C@H](C)O1 [DOXORUBICIN]	1	18	0	2.9	–
CCN(CC)CCNc1ccc(CN)c2sc3ccccc3c(=O)c12	4	270	0	>4	–
CCN(CC)CCNc1ccc(CNC(=O)C(F)(F)F)c2sc3ccccc3c(=O)c12	0	1171	21	1.5	–
CCN(CC)CCNc1ccc(CNC)c2sc3ccccc3c(=O)c12	1	800	0	3.1	–
CCN(CC)CCNc1ccc(CO)c2sc3ccccc3c(=O)c12 [HYCANTHONE]	0	290	4	3.4	–
CCN(CC)CCNc1ccc(CNC(C)=O)c2sc3ccccc3c(=O)c12	3	540	0	2.7	–
CCN(CC)CCNc1ccc(CN(C)C)c2sc3ccccc3c(=O)c12	0	544	23	0.9	–
CCN(CC)CCNc1ccc(CNC(=O)OC)c2sc3ccc(OC)cc3c(=O)c12	5	240	0	>4.5	–
CCN(CC)CCNc1ccc(CNS(C)(=O)=O)c2sc3ccccc3c(=O)c12	3	–	0	2	124
CCN(CC)CCNc1ccc(CNC)c2sc3ccc(O)cc3c(=O)c12	0	60	0	4.6	–
CCN(CC)CCNc1ccc(CNC(=O)c2ccccc2)c2sc3ccccc3c(=O)c12	1	252	26	0.5	–
